Reference: ChEMBL document CHEMBL1130847, “Synthesis and pharmacology of N-alkylated derivatives of the excitotoxin ibotenic acid” (Bioorg Med Chem Lett, 1998)

Columns and labels:
[1] = target: Metabotropic glutamate receptor 1 (Rattus norvegicus, UniProt P23385); assay: Compound was evaluated for agonistic activity against mGluR1 alpha metabotropic receptor subtype in rat cortical slice model; assay type: functional
Rattus norvegicus = organism: Rattus norvegicus; assay: Evaluated for effective concentration in, in vitro electrophysiological model in the rat cortical slice model.; assay type: functional

Chain of Metabotropic glutamate receptor 1 (P23385 whole entry): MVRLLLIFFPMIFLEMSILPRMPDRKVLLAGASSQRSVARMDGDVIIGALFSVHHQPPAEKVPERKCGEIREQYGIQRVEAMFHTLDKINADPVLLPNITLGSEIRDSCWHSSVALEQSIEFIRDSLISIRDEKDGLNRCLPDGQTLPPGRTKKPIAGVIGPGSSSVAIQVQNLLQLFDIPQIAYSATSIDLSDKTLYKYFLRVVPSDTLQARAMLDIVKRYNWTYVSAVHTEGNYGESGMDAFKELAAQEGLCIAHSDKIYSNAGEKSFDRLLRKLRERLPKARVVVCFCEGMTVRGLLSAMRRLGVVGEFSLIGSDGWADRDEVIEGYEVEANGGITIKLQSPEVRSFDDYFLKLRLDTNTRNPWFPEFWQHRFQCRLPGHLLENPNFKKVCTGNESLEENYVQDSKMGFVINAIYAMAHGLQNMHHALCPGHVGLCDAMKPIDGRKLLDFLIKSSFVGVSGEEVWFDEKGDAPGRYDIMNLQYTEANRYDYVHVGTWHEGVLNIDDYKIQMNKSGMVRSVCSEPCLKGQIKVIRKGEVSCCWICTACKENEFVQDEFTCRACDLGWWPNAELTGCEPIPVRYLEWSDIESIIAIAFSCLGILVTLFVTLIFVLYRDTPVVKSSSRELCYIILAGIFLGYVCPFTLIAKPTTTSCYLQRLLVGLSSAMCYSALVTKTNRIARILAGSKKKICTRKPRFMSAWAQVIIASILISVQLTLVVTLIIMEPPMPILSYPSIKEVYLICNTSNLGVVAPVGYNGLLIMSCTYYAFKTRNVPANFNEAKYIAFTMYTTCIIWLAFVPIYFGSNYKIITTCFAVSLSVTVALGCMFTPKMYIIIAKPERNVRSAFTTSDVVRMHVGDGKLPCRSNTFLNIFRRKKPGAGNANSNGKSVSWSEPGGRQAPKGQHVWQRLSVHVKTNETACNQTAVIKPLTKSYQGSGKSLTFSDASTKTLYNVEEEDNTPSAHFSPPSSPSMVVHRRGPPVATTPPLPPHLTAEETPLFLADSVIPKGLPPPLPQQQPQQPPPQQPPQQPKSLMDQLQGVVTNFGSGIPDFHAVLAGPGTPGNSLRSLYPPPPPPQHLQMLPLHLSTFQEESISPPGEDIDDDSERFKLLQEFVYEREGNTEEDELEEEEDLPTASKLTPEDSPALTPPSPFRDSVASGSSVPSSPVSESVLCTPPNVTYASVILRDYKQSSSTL

| SMILES | EC50 [1] | EC50 (Rattus norvegicus) |
| --- | --- | --- |
| Cc1onc(O)c1C(N)C(=O)O (stereo not given) | > 1000 µM | 12 µM |
| NC(C(=O)O)c1cc(O)no1 (stereo not given) | 43 µM | 9.6 µM |
| CCNC(C(=O)O)c1cc(O)no1 (stereo not given) | > 1000 µM | 320 µM |
| O=C(O)C(NCc1ccccc1)c1cc(O)no1 (stereo not given) | > 1000 µM | > 1000 µM |
| CNC(C(=O)O)c1cc(O)no1 (stereo not given) | > 1000 µM | 140 µM |
